BindingDB's records for doi:10.1021/jm060561m (Purdue University, 2006)
pKi: −log10 of the molar value.

Target: T1, Dimer of Gag-Pol polyprotein [501-599,Q508K,L534I,L564I,C568A,C596A] (Human immunodeficiency virus 1, UniProt P03367, C568A/C596A/L534I/L564I/Q508K)
T1 construct: 501-599
Assay: Protease Inhibition Assay
Conditions: pH 6.4; 25 °C
Experimental: The Ki values were determined by substrate cleavage assay using fluorogenic substrate, 2-(aminobenzoyl)-Thr-Ile-Nle-Phe(p-NO2)-Gln-Arg-NH2. A standard curve relating changes in fluorescent intensity to changes in concentration of product was used to convert fluorescent changes into molar velocities. The amount of cleavage was determined by HPLC.

SMILES | pKi
CC(C)CN(C[C@@H](O)[C@H](Cc1ccccc1)NC(=O)O[C@H]1C[C@H]2CCC[C@H]2C1)S(=O)(=O)c1ccc(CO)cc1 [(2R,3aR,6aS)-octahydropentalen-2-yl N-[(2S,3R)-3-hydroxy-4-{[4-(hydroxymethyl)benzene](2-methylpropyl)sulfonamido}-1-phenylbutan-2-yl]carbamate] | 8.28
CC(C)CN(C[C@@H](O)[C@H](Cc1ccccc1)NC(=O)O[C@@H]1C[C@@H]2CCO[C@@H]2C1)S(=O)(=O)c1ccc(N)cc1 [(3aS,5R,6aR)-hexahydro-2H-cyclopenta[b]furan-5-yl N-[(2S,3R)-4-[(4-aminobenzene)(2-methylpropyl)sulfonamido]-3-hydroxy-1-phenylbutan-2-yl]carbamate] | 9.85
